Data as given in US20240417395A1, “DUAL ANTAGONIST AND USE THEREOF” (NICOYA THERAPEUTICS (SHANGHAI) CO., LTD, priority 2021, published 2024).
Values after ≈ are worked out from the molar mass of the structure shown. Where two headings read alike, the source gives them in different places. Residues, ends and D or L forms follow the SMILES beside them.

Experiments:
[1] = target: ETa (Homo sapiens (Human), UniProt P25101); test: Calcium flux assay on ETa cell line; format: cell-based; settings: ETa/HEK293, calcium flux, endothelin-1 agonist
Description: (§1) Test materials: a) cell line: ETa/HEK293; b) vehicles: DMEM, Invitrogen (Cat #11960); Geneticin, Invitrogen (Cat #10131); c) reagent: Fluo-4 Direct, (Invitrogen, Cat #F10471); d) instruments: 384 well Poly-D-Lysine protein coating plate, Greiner #781946; Vi-cell XR Cell Viability Analyzer, Beckman Coulter; Incubator, Thermo.
For the employed agonist endothelin factor (endothelin-1, ET-1) master plate: the agonist was diluted from 50 μM to 15 μM with the test buffer solution.
For antagonist (BQ123, Am J Physiol. 1994 April; 266 (4 Pt 2): H1327-31.) plates and the compound plates: the antagonist and the tested compounds were diluted with DMSO at a gradient ratio of 1:4 to obtain 10 concentration points. Afterwards, 900 nL of each compound solution was transferred to the master plate and 30 μL of the test buffer solution was added. • a) The cell line was removed from the incubator, and 20 μL of 2X Fluo-4 Direct™ buffer solution was added gently by a pipette to a 384-well cell culture plate. • b) The cell plate was incubated at 37° C. for 50 min in the environment of 5% CO2, and then incubated at room temperature for 10 min. • c) The cell plate was removed from the incubator and placed in FLIPR. The compound plates and the tip box were placed in FLIPR. • d) Regarding the EC80 plate: • 1) Operations were conducted on […]. • 2) 10 μL of compound solution was transferred from the EC80 master plate to the cell plate. • 3) Fluorescence signals were read. • 4) The read signals were counted, and the EC80 value of each cell line was calculated using FLIPR. • 5) For the concentration of the compound plate, a solution having a concentration 6 times that of the reference agonist EC80 was formulated. • e) Regarding the compound plate: • 1) Operations were conducted on […]. • 2) 10 μL of compound was transferred to the cell plate. • 3) Fluorescence signals were read. • 4) 10 μL of solution having a concentration 6 times that of the reference agonist EC80 was transferred to the cell plate. • 5) Fluorescence signals were read. • f) Data analysis by Prism

[2] = target: AT1 (Homo sapiens (Human), UniProt P30556); test: Calcium flux assay on AT1 cell line; format: cell-based; settings: AT1/HEK293, calcium flux, angiotensin II agonist
Description: as §1, with “AT1/HEK293;” for “ETa/HEK293;”, “F12,” for “DMEM,”, “#11765-047); FBS, Corning (Cat #35-076-CV);” for “#11960);”
For the agonist (angiotensin II) master plate, the agonist solution was diluted from 1 mM to 200 μM with the test buffer solution. […] Afterwards, 900 nL of each compound solution was transferred to the master plate and 30 μL of the test buffer solution was added. • a) The cell plate was removed from the incubator, and 20 μL of 2X Fluo-4 Direct was added by a pipette to a 384-well cell plate. • b) The cell plate was incubated at 37° C. for 50 min in the environment of 5% CO2, and then incubated at room temperature for 10 min. • c) The cell plate was removed from the incubator and placed in FLIPR. The compound plates and the tip box were placed in FLIPR. • d) Regarding the EC80 plate: • 1) Operations were conducted on […]. • 2) 10 μL of compound solution was transferred from the EC80 master plate to the cell plate. • 3) Fluorescence signals were read. • 4) The read signals were counted, and the EC80 value of each cell line was calculated using FLIPR. • 5) For the concentration of the compound plate, a solution having a concentration 6 times that of the reference agonist EC80 was formulated. • e) Regarding the compound plate: • 1) Operations were conducted on […]. • 2) 10 μL of compound was transferred to the cell plate. • 3) Fluorescence signals were read. • 4) 10 μL of solution having a concentration 6 times that of the reference agonist EC80 was transferred. • 5) Fluorescence signals were read. • f) Data analysis by Prism

[3] = Experiment on water solubility (HPLC-UV); format: physicochemical
Description: The detection was carried out in accordance with the high performance liquid chromatography (General Principles 0512 of Chinese Pharmacopoeia Volume IV (2020)):
Chromatographic conditions for the HPLC-UV method: mobile phase: 0.02 M KH2PO4 aqueous solution-acetonitrile (90:10), gradient elution; chromatographic column: C18; detection wavelength: 210 nm. The water solubility was calculated based on the peak area by the external standard method.

Sequence of ETa (P25101 21-427): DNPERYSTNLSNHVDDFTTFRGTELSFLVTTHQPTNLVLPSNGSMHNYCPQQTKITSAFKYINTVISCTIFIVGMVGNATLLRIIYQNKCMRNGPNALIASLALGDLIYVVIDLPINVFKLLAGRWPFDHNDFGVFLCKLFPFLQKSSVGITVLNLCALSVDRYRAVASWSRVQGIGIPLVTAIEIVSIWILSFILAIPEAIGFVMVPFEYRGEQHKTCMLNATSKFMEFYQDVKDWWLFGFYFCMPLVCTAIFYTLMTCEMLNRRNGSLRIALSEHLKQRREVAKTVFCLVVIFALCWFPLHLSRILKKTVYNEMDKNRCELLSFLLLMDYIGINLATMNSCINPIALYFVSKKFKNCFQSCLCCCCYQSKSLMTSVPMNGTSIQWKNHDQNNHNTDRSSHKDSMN
Sequence of AT1 (P30556 whole entry): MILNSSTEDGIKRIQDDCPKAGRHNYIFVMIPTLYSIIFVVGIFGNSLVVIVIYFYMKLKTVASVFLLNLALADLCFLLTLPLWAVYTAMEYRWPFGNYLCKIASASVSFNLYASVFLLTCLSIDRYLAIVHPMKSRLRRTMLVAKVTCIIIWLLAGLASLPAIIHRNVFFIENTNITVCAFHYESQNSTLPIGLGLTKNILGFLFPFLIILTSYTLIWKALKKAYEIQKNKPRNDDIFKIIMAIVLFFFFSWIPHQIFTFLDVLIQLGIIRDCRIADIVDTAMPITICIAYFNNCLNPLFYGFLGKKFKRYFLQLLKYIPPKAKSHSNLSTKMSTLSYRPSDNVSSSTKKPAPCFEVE

Row | Compound | IC50 ([1]; read-out: IC50 activity against ETa (class)) [nM] | IC50 ([1]; read-out: IC50 against ETa) [nM] | IC50 ([2]; read-out: IC50 against AT1) [nM] | solubility ([3]; aqueous medium at pH 7.4 (buffer not named), pH 7.4, aqueous buffer, pH7.4, read-out: Solubility pH7.4) [µg/mL] | solubility ([3]; pH 1.6, fassgf or other biorelevant, FaSSGF (pH1.6), read-out: Solubility FaSSGF (pH1.6)) [µg/mL] | solubility ([3]; pH 5, FeSSIF (pH5.0), read-out: Solubility FeSSIF (pH5.0)) [µg/mL] | solubility ([3]; pH 6.5, FaSSIF (pH6.5), read-out: Solubility FaSSIF (pH6.5)) [µg/mL] | IC50 ([2]; read-out: IC50 activity against AT1 (class)) [nM]
1 | CC(C)C[C@@H]1NC(=O)[C@@H](C(C)C)NC(=O)[C@@H]2CCCN2C(=O)[C@@H](CC(=O)O)NC(=O)[C@@H](Cc2c[nH]c3ccccc23)NC1=O [BQ123, reference compound] (HELM PEPTIDE1{L.[dW].[dD].P.[dV]}$PEPTIDE1,PEPTIDE1,1:R1-5:R2$$$V2.0) | 1 to 10 | 2.56 | – | – | – | – | – | –
2 | CCCCC1=NC2(CC3(CC3)C2)C(=O)N1Cc1ccc(-c2ccccc2S(=O)(=O)Nc2noc(C)c2C)c(COCC)c1 [Example 1] | – | 24.6 | 2.9 | 370 (≈ 612 µM) | > 1000 | 200 (≈ 331 µM) | 610 (≈ 1010 µM) | –
3 | CCCCC1=N[C@]2(C[C@H]3C[C@H]3C2)C(=O)N1Cc1ccc(-c2ccccc2S(=O)(=O)Nc2noc(C)c2C)c(COCC)c1 [Example 4] | – | 132 | 4.78 | – | – | – | – | 1 to 10
4 | CCCCC1=N[C@]2(C[C@H]3C[C@H]3C2)C(=O)N1Cc1ccc(-c2ccccc2S(=O)(=O)Nc2noc(C)c2C)c(CN(C)C(=O)CC(C)(C)C)c1 [Example 6] | – | 17.6 | 258 | – | – | – | – | –
